Measured values published in patent US11976057B2, “MrgX2 antagonists” (GlaxoSmithKline Intellectual Property Development Limited, priority 2020, dated 2024).

The compounds below were run against T1, human MRGPRX2 (Homo sapiens, UniProt Q96LB1) (assay: Ca2+ mobilization assay (FLIPR TETRA): inhibition of Cortistatin-14 mediated MRGPRX2 activation).
T1 sequence (Q96LB1 1-330): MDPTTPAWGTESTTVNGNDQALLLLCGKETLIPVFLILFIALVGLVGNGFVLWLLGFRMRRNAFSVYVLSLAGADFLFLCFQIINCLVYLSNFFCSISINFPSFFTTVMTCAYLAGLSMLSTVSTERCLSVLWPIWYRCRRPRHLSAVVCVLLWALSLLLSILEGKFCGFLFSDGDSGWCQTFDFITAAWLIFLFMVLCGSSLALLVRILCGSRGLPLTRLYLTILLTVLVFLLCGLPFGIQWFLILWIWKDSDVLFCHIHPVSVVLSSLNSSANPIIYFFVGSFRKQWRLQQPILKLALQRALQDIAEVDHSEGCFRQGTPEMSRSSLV

| IC50 [µM] | Structure (SMILES) |
| --- | --- |
| 0.01 to 0.1 | C[C@@H](C(=O)Nc1ccc(Oc2ncc(F)cc2F)cn1)N1CCC(F)(F)[C@@H](c2cc[n+]([O-])cc2)C1 [Example 116] |
| 0.01 to 0.1 | C[C@@H](C(=O)Nc1cnc(Oc2ccc(F)cc2)cn1)N1CCC(F)(F)[C@@H](c2ccc(=O)[nH]c2)C1 [Example 68, (S)-2-((S)-4,4-difluoro-3-(6-oxo-1,6-dihydropyridin-3-yl)piperidin-1-yl)-N-(5-(4-fluorophenoxy)pyrazin-2-yl)propanamide] |
| ≤ 0.01 | C[C@@H](C(=O)Nc1ccc(Oc2ccc(F)cc2F)cn1)[C@H]1CCC[C@@H](c2ccc(=O)[nH]c2)C1 [Example 282, (R)—N-(5-(2,4-difluorophenoxy)pyridin-2-yl)-2-((1S,3R)-3-(6-oxo-1,6-dihydropyridin-3-yl)cyclohexyl)propanamide] |
| 0.1 to 3.16 | CC(C(=O)Nc1cnc(Oc2ccc(F)cc2)cn1)N1CCC(F)(F)C(c2c[nH]c(=O)c(C#N)c2)C1 (centres unmarked) [Example 250, 2-(3-(5-cyano-6-oxo-1,6-dihydropyridin-3-yl)-4,4-difluoropiperidin-1-yl)-N-(5-(4-fluorophenoxy)pyrazin-2-yl)propanamide] |
| ≤ 0.01 | C[C@@H](C(=O)Nc1cnc(Oc2ccc(F)cc2F)cn1)N1CCC(F)(F)[C@@H](c2ccc(=O)[nH]c2)C1 [Example 85, (S)-2-((S)-4,4-difluoro-3-(6-oxo-1,6-dihydropyridin-3-yl)piperidin-1-yl)-N-(5-(2,4-difluorophenoxy)pyrazin-2-yl)propanamide] |
| ≤ 0.01 | C[C@@H](C(=O)Nc1ccc(Oc2ccc(F)cc2)cn1)N1CCC(F)(F)[C@@H](c2c[nH]c(=O)c(C#N)c2)C1 [Example 251, (S)-2-((S)-3-(5-cyano-6-oxo-1,6-dihydropyridin-3-yl)-4,4-difluoropiperidin-1-yl)-N-(5-(4-fluorophenoxy)pyridin-2-yl)propanamide] |
| ≤ 0.01 | C[C@@H](C(=O)Nc1ccc(Oc2ccc(F)cc2)cn1)N1CCC(F)(F)[C@@H](c2c[nH]c(=O)c(CN)c2)C1 [Example 204, (S)-2-((S)-3-(5-(aminomethyl)-6-oxo-1,6-dihydropyridin-3-yl)-4,4-difluoropiperidin-1-yl)-N-(5-(4-fluorophenoxy)pyridin-2-yl)propanamide] |
| ≤ 0.01 | C[C@@H](C(=O)Nc1ccc(Oc2ccc(F)cc2F)cn1)N1CCC(F)(F)[C@@H](c2c[nH]c(=O)c(CN)c2)C1 [Example 205, (S)-2-((S)-3-(5-(aminomethyl)-6-oxo-1,6-dihydropyridin-3-yl)-4,4-difluoropiperidin-1-yl)-N-(5-(2,4-difluorophenoxy)pyridin-2-yl)propanamide] |
| 0.01 to 0.1 | C[C@@H](C(=O)Nc1ccc(OCC2CC2)nn1)N1CCC(F)(F)C(c2c[nH]c(=O)c(Br)c2)C1 (stereo partly drawn) [Example 221, (2S)-2-(3-(5-bromo-6-oxo-1,6-dihydropyridin-3-yl)-4,4-difluoropiperidin-1-yl)-N-(6-(cyclopropylmethoxy)pyridazin-3-yl)propanamide] |
| 0.1 to 3.16 | C[C@@H](C(=O)Nc1ccc(F)cn1)N1CCC(F)(F)[C@@H](c2c[nH]c(=O)c(CO)c2)C1 [Example 153, (S)-2-((S)-4,4-difluoro-3-(5-(hydroxymethyl)-6-oxo-1,6-dihydropyridin-3-yl)piperidin-1-yl)-N-(5-fluoropyridin-2-yl)propanamide] |
| 0.1 to 3.16 | C[C@@H](C(=O)Nc1ccc(Cl)cn1)N1CCC(F)(F)[C@@H](c2c[nH]c(=O)c(N)c2)C1 [Example 141, (S)-2-((S)-3-(5-amino-6-oxo-1,6-dihydropyridin-3-yl)-4,4-difluoropiperidin-1-yl)-N-(5-chloropyridin-2-yl)propanamide] |
| 0.1 to 3.16 | C[C@@H](C(=O)Nc1ccc(F)cn1)N1CCC(F)(F)C(c2ccc(=O)n(CCS(C)(=O)=O)c2)C1 (stereo partly drawn) [Example 190, (2S)-2-(4,4-difluoro-3-(1-(2-(methylsulfonyl)ethyl)-6-oxo-1,6-dihydropyridin-3-yl)piperidin-1-yl)-N-(5-fluoropyridin-2-yl)propanamide] |
| 3.16 to 31.6 | CC(C(=O)Nc1ccc(C(O)c2ccc(F)cc2)cn1)N1CCC(F)(F)[C@@H](c2cc[n+]([O-])cc2)C1 (stereo partly drawn) [Example 129, 4-((3S)-4,4-difluoro-1-(1-((5-((4-fluorophenyl) (hydroxy)methyl)pyridin-2-yl)amino)-1-oxopropan-2-yl)piperidin-3-yl)pyridine 1-oxide] |
| 0.01 to 0.1 | CC(C(=O)Nc1ccc(Oc2ccc[nH]c2=O)cn1)N1CCC(F)(F)[C@@H](c2ccc(=O)[nH]c2)C1 (stereo partly drawn) [Example 72, 2-((S)-4,4-difluoro-3-(6-oxo-1,6-dihydropyridin-3-yl)piperidin-1-yl)-N-(5-((2-oxo-1,2-dihydropyridin-3-yl)oxy)pyridin-2-yl)propanamide] |
| ≤ 0.01 | CC(C(=O)Nc1ccc(Oc2ccccc2)cn1)N1CCC(F)(F)C(c2cc[n+]([O-])cc2)C1 (centres unmarked) [Example 110] |
| 0.01 to 0.1 | C[C@@H](C(=O)Nc1ccc(Oc2ncc(F)cc2F)cn1)[C@H]1CCC[C@@H](c2cc[n+]([O-])cc2)C1 [Example 290, 4-((1R,3S)-3-((R)-1-((5-((3,5-difluoropyridin-2-yl)oxy)pyridin-2-yl)amino)-1-oxopropan-2-yl)cyclohexyl)pyridine 1-oxide] |
| 0.1 to 3.16 | CC(C(=O)Nc1ccc(Oc2ccc(C#N)cc2)cn1)N1CCC(F)(F)C(c2ccc(=O)[nH]c2)C1 (centres unmarked) [Example 58, N-(5-(4-cyanophenoxy)pyridin-2-yl)-2-(4,4-difluoro-3-(6-oxo-1,6-dihydropyridin-3-yl)piperidin-1-yl)propanamide] |
| 0.1 to 3.16 | CC(C(=O)Nc1ccc(OCC2CCC2)cn1)N1CCC(F)(F)[C@@H](c2ccc(=O)[nH]c2)C1 (stereo partly drawn) [Example 30, N-(5-(cyclobutyl-methoxy)pyridin-2-yl)-2-((S)-4,4-difluoro-3-(6-oxo-1,6-dihydropyridin-3-yl)piperidin-1-yl)propanamide] |
| 3.16 to 31.6 | Cc1cc(C2CN([C@@H](C)C(=O)Nc3ccc(F)cn3)CCC2(F)F)cn(CC(F)(F)F)c1=O (stereo partly drawn) [Example 200, (2S)-2-(4,4-difluoro-3-(5-methyl-6-oxo-1-(2,2,2-trifluoroethyl)-1,6-dihydropyridin-3-yl)piperidin-1-yl)-N-(5-fluoropyridin-2-yl)propanamide] |
| ≤ 0.01 | C[C@@H](C(=O)Nc1ccc(Cc2ccccc2)cn1)N1CCC(F)(F)[C@@H](c2ccc(=O)[nH]c2)C1 [Example 7, (S)-N-(5-benzylpyridin-2-yl)-2-((S)-4,4-difluoro-3-(6-oxo-1,6-dihydropyridin-3-yl)piperidin-1-yl)propanamide] |
| 3.16 to 31.6 | Cc1cc([C@@H]2CCCN([C@@H](C)C(=O)Nc3ccc(Cl)cn3)C2)c[nH]c1=O (single isomer, unassigned) [Example 184] |
| 0.1 to 3.16 | C[C@@H](C(=O)Nc1ccc(C2CC2)cn1)N1CCC(F)(F)[C@@H](c2c[nH]c(=O)cn2)C1 [Example 137, (S)-N-(5-cyclopropylpyridin-2-yl)-2-((R)-4,4-difluoro-3-(5-oxo-4,5-dihydropyrazin-2-yl)piperidin-1-yl)propanamide] |
| 0.1 to 3.16 | CC(C(=O)Nc1ccc(Oc2ccncc2)cn1)N1CCC(F)(F)[C@@H](c2ccc(=O)[nH]c2)C1 (stereo partly drawn) [Example 64, 2-((S)-4,4-difluoro-3-(6-oxo-1,6-dihydropyridin-3-yl)piperidin-1-yl)-N-(5-(pyridin-4-yloxy)pyridin-2-yl)propanamide] |
| 3.16 to 31.6 | C[C@@H]1C[C@@H](c2ccc(=O)[nH]c2)CN([C@@H](C)C(=O)Nc2ccc(Cl)cn2)C1 [Example 173] |
| 0.1 to 3.16 | C[C@@H](C(=O)Nc1ccc(Cl)cn1)N1CCC(F)(F)[C@@H](c2ccc(=O)[nH]n2)C1 [Example 149, (S)-N-(5-chloropyridin-2-yl)-2-((R)-4,4-difluoro-3-(6-oxo-1,6-dihydropyridazin-3-yl)piperidin-1-yl)propanamide] |
| ≤ 0.01 | C[C@@H](C(=O)Nc1ccc(Oc2ccc(F)cc2)cn1)N1CCC(F)(F)[C@@H](c2c[nH]c(=O)c(CO)c2)C1 [Example 156] |
